Assay results reported in patent EP1051405B1, “NOVEL DIHYDROXYHEXANOIC ACID DERIVATIVES” (Pfizer Products Inc., priority 1998, dated 1999).

Experiment: physchem
Conditions: phosphate buffer, pH 7, aqueous buffer
Method: Solubility of the compounds is determined at four fixed concentrations and is expressed as µg/mL. Solubility or insolubility is measured in phosphate buffer using a turbidometric plate reader by automated micro addition of a compound predissolved in DMSO. Solubilities at 50, 100, 200 and 250 or 100, 200, 400 and 500 micrograms/mL can be determined by predissolving 1 mg of compound in sufficient DMSO to reach an initial concentration of 20 or 40 µg/ µL.
A spectramax 250 UV transparent 96 well microplate is filled with 200 µL of Stock pH 7 phosphate buffer solution. A series of 25 absorption readings in a 5 by 5 matrix at a wavelength of 492nm are taken for each well in the microplate containing pH buffer alone. […]
After compound addition, a second scan consisting of a series of 25 absorption readings in a 5 by 5 matrix are taken for each well in the microplate at the same wavelength as the first blank scan. The raw compound OD values for each reading in the 5 by 5 matrix are subtracted from the corresponding "blank" values in the 5 by 5 matrix to provide the raw solubility OD data.
Data obtained from the Tecan SLT Spectra Image Reader is then analyzed using a Visual Basic computer program (or can be calculated manually according to methods well known to those of ordinary skill in the art), so as to provide solubility data for each compound.

Row | Structure (SMILES) | solubility
1 | CC(C)(O)CC[C@H](C[C@H](O)[C@H](Cc1cccc(Cl)c1)NC(=O)c1cnc2ccccc2n1)C(N)=O [Example 2, Quinoxaline-2-carboxylic acid [4(R)-carbamoyl-1(S)-(3-chloro-benzyl)-2(S),7-dihydroxy-7-methyl-octyl]-amide] | > 100 µg/mL
2 | CC(C)(F)CC[C@H](C[C@H](O)[C@H](Cc1ccccc1)NC(=O)c1cnc(Cl)c(Cl)c1)C(N)=O [Example 247] | < 5 µg/mL
